Values quoted from earlier work, collected in patent US20080044504A1, “Pomegranate Juice, Pomegranate Juice Powder and Process for Producing the Powder” (Marukin Bio, Inc., priority 2004, published 2008).
Read-outs that look alike come from different tables or passages of the source.

System: estrogen receptor

| SMILES | binding to the estrogen receptor (binding rate of DES defined as 100%) [%] | binding to the estrogen receptor [%] |
| --- | --- | --- |
| O=c1c(-c2ccc(O)cc2)coc2cc(O)ccc12 [daidzein] | 0.04 |  |
| O=c1c(-c2ccc(O)cc2)coc2cc(O)cc(O)c12 [genistein] |  | 1.7 |
